Measured values as given in article PMC11509018, “Evaluation of the Role of Tanshinone I in an In Vitro System of Charcot-Marie-Tooth Disease Type 2N” (International Journal of Molecular Sciences, 2024).

Target: T1, AlaRS N71Y binding to Nrp1 (Homo sapiens, UniProt P49588, N71Y)
T1 construct: expressed in transfected cells
T1 sequence (P49588 1-968 N71Y): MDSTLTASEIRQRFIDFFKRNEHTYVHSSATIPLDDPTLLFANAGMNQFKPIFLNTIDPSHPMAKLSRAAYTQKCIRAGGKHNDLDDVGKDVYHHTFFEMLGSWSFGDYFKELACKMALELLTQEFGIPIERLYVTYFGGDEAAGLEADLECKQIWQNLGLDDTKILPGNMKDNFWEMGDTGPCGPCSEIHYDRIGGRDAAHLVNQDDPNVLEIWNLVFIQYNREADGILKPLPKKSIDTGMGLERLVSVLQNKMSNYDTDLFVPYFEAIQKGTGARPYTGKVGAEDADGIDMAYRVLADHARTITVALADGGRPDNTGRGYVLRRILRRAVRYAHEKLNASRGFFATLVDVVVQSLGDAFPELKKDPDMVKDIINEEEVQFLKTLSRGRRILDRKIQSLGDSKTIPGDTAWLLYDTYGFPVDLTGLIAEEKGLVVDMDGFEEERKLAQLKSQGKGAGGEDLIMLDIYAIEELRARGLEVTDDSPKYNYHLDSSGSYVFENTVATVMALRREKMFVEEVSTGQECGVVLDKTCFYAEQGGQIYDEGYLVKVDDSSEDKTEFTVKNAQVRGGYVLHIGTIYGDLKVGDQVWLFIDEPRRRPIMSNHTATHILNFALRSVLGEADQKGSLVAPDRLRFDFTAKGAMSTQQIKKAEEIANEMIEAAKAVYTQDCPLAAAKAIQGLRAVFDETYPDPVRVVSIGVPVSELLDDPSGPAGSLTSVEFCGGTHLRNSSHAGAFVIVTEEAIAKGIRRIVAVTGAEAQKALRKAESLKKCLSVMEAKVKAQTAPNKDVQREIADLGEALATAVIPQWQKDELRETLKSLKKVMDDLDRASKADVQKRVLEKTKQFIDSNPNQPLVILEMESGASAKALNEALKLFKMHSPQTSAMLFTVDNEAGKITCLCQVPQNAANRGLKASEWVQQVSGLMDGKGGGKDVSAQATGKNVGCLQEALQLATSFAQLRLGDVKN
Test: Co-IP of HA-AlaRS mutant with Nrp1 in transfected cells
Type: cell-based
Settings: 20 µM Tanshinone I for 24 h, ImageJ, average of three repeats
Experimental: To further investigate whether Tanshinone I-induced conformational changes in AlaRS CMT mutants affect their interaction with Nrp1, Co-IP experiments were performed in cells treated with Tanshinone I. By comparing Co-IP results obtained before and after treatment, we assessed the influence of the drug on the binding strength and mode between the AlaRS CMT mutants and Nrp1. […] To confirm the direct effect of Tanshinone I on the interaction between AlaRS CMT mutants and Nrp1, pull-down experiments were performed. […] Given that the interaction between AlaRS mutants and Nrp1 is associated with disease progression in CMT, the ability of Tanshinone I to disrupt this binding highlights its potential to intervene in the pathogenic mechanisms of these diseases.
Figure 7 The impact of Tanshinone I on the interaction between AlaRS mutants and Nrp1. (A) Co-IP assays were conducted to assess the binding between HA-AlaRS mutants and Nrp1, both with and without treatment with 20 µM Tanshinone I for 24 h. […] (C) Pull down assay was performed to detect the binding between AlaRS mutants and GST-Nrp1 b1 with or without 20 µM Tanshinone I. (D) Relative quantification statistics of the AlaRS mutants pulled down from the GST pull down experiments after Tanshinone I treatment were performed using ImageJ. (E) The cell viability of 293T and NSC34 cells treated with different concentrations of Tanshinone I was assessed using the CCK-8 assay over a 24 h period. TEXT PRINTED IN THE PICTURE: (B) Tanshinone I: Mean density band (N71Y): 0.60; Mean density band (G102R): 0.53; Mean density band (R326W): 0.50; Mean density band (R329H): 0.50; Mean density band (E337K): 0.62 | (D) Tanshinone I: Mean density band (N71Y): 0.82; Mean density band (G102R): 0.76; Mean density band (R326W): 0.84; Mean density band (R329H): 0.84; Mean density band (E337K): 0.90
Total protein was extracted from cells using RIPA buffer (50 mM Tris-HCl pH 7.4, 150 mM NaCl, 1% NP40, 1 mM EDTA) supplemented with a protease and phosphatase inhibitor cocktail (Roche, Basel, Switzerland). After SDS-PAGE, the protein on the gel was transferred to a PVDF membrane (Bio-Rad, Hercules, CA, USA) and then blocked with 5% non-fat dry milk in TBST for 1 h. Then, the membranes were incubated with the indicated primary antibodies and corresponding HRP-conjugated secondary antibodies. Signals were detected using the Bio-Rad ChemiDoc system (Bio-Rad, Shanghai, China). The following antibodies were used: Flag (Ray antibody biotech, Beijing, China, 1:3000), HA (Ray antibody biotech, Beijing, China, 1:3000), and GAPDH (Ray antibody biotech, Beijing, China, 1:5000).
To detect the binding of Nrp1 and AlaRS mutants in cells, whole-cell lysates (500 μg) were treated overnight with 2 μg of anti-Flag antibody in RIPA buffer. Next, Protein A/G agarose beads (#sc-2003, Santa Cruz Biotechnology, Santa Cruz, CA, USA) were applied to the lysates and the samples were further treated for 8–12 h with rotation. Samples were washed three times with RIPA buffer. Subsequently, the immunoprecipitations were resuspended into 2 × SDS-loading buffer. The samples were then boiled for 10 min and detected using Western blot. The experiment was repeated three times.

Mean density band (N71Y), relative quantification of AlaRS mutant immunoprecipitated: 0.60
Compound: Cc1coc2c1C(=O)C(=O)c1c-2ccc2c(C)cccc12 [Tanshinone I]
